In US10620222B2, “Electrified compositions for determining the risk of developing adolescent idiopathic scoliosis through the use of GI protein receptor” (CHU Sainte-Justine, priority 2008, dated 2020):
Several values for one entry are separate records, joined by “and”; a condition that tells them apart may be missing. Identical values can stand only once.

What was measured:
[1] = system: Gi protein-mediated pathway in MG63 osteoblast cell line; assay type: cell-based; conditions: 100 ng/mL PTX 16 h, stimulation with 10 μM ligand, 37° C., 5 min
Experimental: The ability of CDS to detect the relative part of the Gi protein-mediated pathway in melatonin signaling was determined by blocking this pathway with pertussis toxin (PTX). This toxin ADP-ribosylates the a subunit of the heterotrimeric Gi protein and thereby prevents its activity. The MG63 osteoblast cell line was serum-starved for 16 h in the absence or presence of 100 ng/mL of PTX to inhibit the αi subunit of Gi protein. […] Cellular responses were measured with CELLKEY™ label-free cellular analysis system as described in the Material and Methods section.

[2] = system: receptors coupled to Gi proteins expressed on osteoblasts; assay: Cellular Dielectric Spectroscopy (CDS, CELLKEY) response to Gi-coupled receptor ligands in osteoblasts from control and AIS subjects; assay type: cell-based, human; conditions: for dZiec value: n1, n2 of Exper. 1-3
[3] = system: melatonin signaling in PBMCs; assay: CDS response to iodomelatonin in PBMCs from control and IS subjects; assay type: cell-based, human
Text: Blood samples were obtained from patients and control groups and collected in blood collection tubes containing EDTA and then centrifuged on a Ficoll-Plaque (GE Healthcare, Mississauga, ON, Canada) solution to obtain PBMCs (containing principally lymphocytes). PBMC fractions were preserved frozen in FBS with 10% DMSO and kept in liquid nitrogen until thawed and assayed. PBMCs were harvested from stock tissue culture flask and washed three times with assay buffer. Cells were isolated from the heparinized peripheral by ficoll-Hypaque density gradient centrifugation, and cultured in RPMI 1640 medium supplemented with 10% FBS, 100 μg/mL streptomycin and 1% of phytohemagglutinin. Following 48 h of incubation at 37° C./CO2 cells were washed three times with assay buffer and seeded into the CELLKEY™ label-free cellular analysis system small 96-well plates. Typically, an average of 1×10^5 cells to 1.5×10^5 were added to each well and allowed to settle for 30 min at room temperature. […] After the cells settled, the cell plate was placed on the instrument and experiments were initiated in the manner described below after the acquisition of 5 min of baseline measurements. All experiments were conducted at 28° C.
The response induced by the various ligands to their receptors was measured by cellular dielectric spectroscopy (CDS) using the CELLKEY™ label-free cellular analysis technology. (MDS Sciex, San Francisco, Calif., USA). The CELLKEY™ label-free cellular analysis system integrates a proprietary impedance measurement system, custom 96-well microliter plate, onboard 96-well fluidics, and environment control and custom acquisition and analysis software in a full solution package (MDS Sciex) that is compatible with commercially available robotic platforms. Small voltage at 24 frequencies, from 1 KHz to 10 MHz, is applied to a monolayer of cells settled in a 96-well microplate containing electrodes at the bottom, and the resultant current is measured at an update rate of 2 s. […] Onboard fluid additions and exchanges are handled by 96-well head fluid delivery device with a range of 5-500 μL. In addition to the cell plate location, the CELLKEY™ label-free cellular analysis system includes two additional stations for 96- or 384-well compound plates. All aspects of assay set up, execution, and data acquisition and analysis are controlled by CELLKEY™ label-free cellular analysis software.
PBMCs were isolated from control subjects, IS subjects as described in Example 2 above.

[4] = osteoblasts of control subjects, 300 μM ligand, from FIGS. 11A-11F
[5] = PBMCs of control subjects, 300 μM, from FIG. 12A

## COc1ccc2[nH]c(I)c(CCNC(C)=O)c2c1 [Iodomelatonin, 2-lodomelatonin]
[1]
  inhibition extent of the CDS response by PTX treatment: ~90%
[2]; osteoblasts from both control and IS patients, FIGS. 4A-4C
  CDS response, dependence on concentration: concentration-dependent manner
[2]; osteoblasts of AIS#1020 (Group 3), 300 μM ligand
  dZiec value: 69.57 and 66.57 and 85.25 and 97.25 and 83.71 and 74.11
[2]; osteoblasts of AIS#1198 (Group 3 in Table II), 300 μM ligand
  dZiec value: 61.05 and 65.29 and 70.29 and 60.97 and 57.37
[2]; osteoblasts of AIS#1385 (Group 2), 300 μM ligand
  dZiec value: 66.51 and 67.51 and 79.93 and 81.93 and 79.02 and 69.42
[2]; osteoblasts of AIS#1468 (Group 3), 300 μM ligand
  dZiec value: 91.38 and 88.38 and 101.69 and 113.69 and 102.83 and 93.23
[2]; osteoblasts of AIS#1474 (Group 1), 300 μM ligand
  dZiec value: 33.02 and 32.02 and 38.33 and 32.33 and 39.97 and 36.37
[2]; osteoblasts of AIS#1488 (Group 1), 300 μM ligand
  dZiec value: 25.43 and 27.43 and 30.31 and 27.31 and 19.17 and 19.57
[2]; osteoblasts of AIS#1513 (Group 3), 300 μM ligand
  dZiec value: 83.92 and 80.92 and 94.08 and 106.08 and 95.30 and 85.70
[2]; osteoblasts of AIS#1550 (Group 2), 300 μM ligand
  dZiec value: 55.99 and 48.99 and 60.90 and 62.90 and 62.74 and 59.14
[2]; osteoblasts of control CTR#60, 300 μM ligand
  dZiec value: 142.55/— and 139.55/— and 149.20/— and 161.20/— and 152.18/— and 142.58/—
[2]; osteoblasts of control CTR#61, 300 μM ligand
  dZiec value: 130.88/— and 127.88/— and 138.31/— and 150.31/— and 140.90/— and 131.30/—
[2]; osteoblasts of control CTR#69, 300 μM ligand
  dZiec value: 150.99/— and 147.99/— and 161.10/— and 173.10/— and 162.34/— and 152.74/—
[2]; [4]
  Absolute dZiec, control value of max diff. (maximal control value): 159
  Absolute dZiec, control value of min diff. (minimal control value): 120
[2]; osteoblasts, AIS Group 1 value of max diff., 300 μM ligand, from FIGS. 11A-11F
  Absolute dZiec, Group 1, max diff. (group value): 15
[2]; osteoblasts, AIS Group 1 value of min diff., 300 μM ligand, from FIGS. 11A-11F
  Absolute dZiec, Group 1, min diff. (group value): 35
[2]; osteoblasts, AIS Group 2 value of max diff., 300 μM ligand, from FIGS. 11A-11F
  Absolute dZiec, Group 2, max diff. (group value): 57
[2]; osteoblasts, AIS Group 2 value of min diff., 300 μM ligand, from FIGS. 11A-11F
  Absolute dZiec, Group 2, min diff. (group value): 84
[2]; osteoblasts, AIS Group 3 value of max diff., 300 μM ligand, from FIGS. 11A-11F
  Absolute dZiec, Group 3, max diff. (group value): 90
[2]; osteoblasts, AIS Group 3 value of min diff., 300 μM ligand, from FIGS. 11A-11F
  Absolute dZiec, Group 3, min diff. (group value): 101
[2]; osteoblasts, FIGS. 4A-4C
  magnitude of CDS response in IS osteoblasts vs control: significantly lower
[3]; PBMCs from IS patients, 300 μM
  maximal magnitude of CDS response: 110 ohms
  minimum magnitude of CDS response: 16 ohms
[3]; PBMCs from healthy volunteers, 300 μM
  minimal magnitude of CDS response: 124 ohms
[3]; PBMCs from normal/healthy subjects, 300 μM
  melatonin signaling response (CDS): greater than 120 ohms
[3]; [5]
  Absolute dZiec, control value of max diff. (maximal control value): 225
  Absolute dZiec, control value of min diff. (minimal control value): 124
[3]; PBMCs, FIG. 12A, melatonin data not shown
  responsiveness of PBMCs from patients with IS compared to healthy volunteers: less responsive
[3]; PBMCs, Group 1 value of max diff., 300 μM, from FIG. 12A
  Absolute dZiec, Group 1, max diff. (group value): 16
[3]; PBMCs, Group 1 value of min diff., 300 μM, from FIG. 12A
  Absolute dZiec, Group 1, min diff. (group value): 36
[3]; PBMCs, Group 2 value of max diff., 300 μM, from FIG. 12A
  Absolute dZiec, Group 2, max diff. (group value): 49
[3]; PBMCs, Group 2 value of min diff., 300 μM, from FIG. 12A
  Absolute dZiec, Group 2, min diff. (group value): 75
[3]; PBMCs, Group 3 value of max diff., 300 μM, from FIG. 12A
  Absolute dZiec, Group 3, max diff. (group value): 86
[3]; PBMCs, Group 3 value of min diff., 300 μM, from FIG. 12A
  Absolute dZiec, Group 3, min diff. (group value): 110
[3]; PBMCs, IS group 1, 300 μM
  mean of CDS response: 27.86±4.18 ohms
[3]; PBMCs, IS group 2, 300 μM
  mean of CDS response: 65.71±3.42 ohms
[3]; PBMCs, IS group 3, 300 μM
  mean of CDS response: 97.94±1.36 ohms
[3]; PBMCs, control group, 300 μM
  mean of CDS response: 155.17±3.91 ohms
